Assay results: patent US12410161B2, “Tetrahydrobenzo-quinoline sulfonamides derivative compounds” (UCB Biopharma SRL, priority 2019, dated 2025)

Key:
[1] = target: T1, IgE-Tb binding to sFcεR1α-Y131A-AF488 (Homo sapiens, UniProt P01854, N146Q/N252Q); assay: In vitro FRET assay of IgE-Tb binding to sFcεR1α receptor (protocol for examples 9 and 10, 18 hours incubation); details: examples 9 and 10: compound incubated 30 minutes with IgE-Tb before sFcεR1α-Y131A-AF488; incubated 18 hours at room temperature; read-out: FRET IC50 range
T1 construct: fused on or other part: LanthaScreen amine-reactive terbium chelate label on IgE-Fc (about 4 Tb per IgE-Fc)
Experimental: In vitro Biochemical Assay:
Protocol for preparation of IgE-Tb reagent
86 nmoles of IgE-Fc(N265Q, N371Q) (Young et al., 1995) at 172 μM in 100 mM NaHCO3, pH 9.5 was added to 1 mg of LanthaScreen™ Amine Reactive Tb Chelate (ThermoFisher catalogue number PV3583) and incubated for 16 hours at 20° C. The material was then buffer exchanged into Phosphate Buffered Saline (being, 137 mM NaCl, 2.7 mM KCl, 10 mM Na2HPO4, 1.8 mM K2HPO4, pH 7.4) and the material quantified and the degree of Tb conjugation determined by measuring the absorption at 280 nm and 343 nm.
(§1) The integrity of the conjugated material was determined by analytical size exclusion chromatography on a 5200 HR 10×300 column (GE Healthcare). […]
175 nmoles of protein was added to 1 mg of Alexa Fluor™ 488 hydrazide (Invitrogen) and incubated for 16 hours at 22° C. […] The protein was buffer exchanged into Phosphate Buffered Saline (being, 137 mM NaCl, 2.7 mM KCl, 10 mM Na2HPO4, 1.8 mM K2HPO4, pH 7.4) and the material quantified and the degree of Alexa Fluor™ 488 conjugation determined by measuring the absorption at 280 nm and 495 nm.
as §1
The aim was to measure binding of IgE-Tb to receptor, and the inhibition thereof by compounds, using an in vitro Fluorescence Resonance Energy Transfer (FRET) Assay. […]

[2] = target: T2, IgE-Tb binding to soluble IgE receptor FcεRIα-Y131A-AF488 (Homo sapiens, UniProt P0DOX4, N265Q/N371Q); assay: In vitro FRET assay of IgE-Tb binding to FcεRIα receptor (protocol for most examples, 2 hours incubation); details: 5 nM IgE-Tb, 25 nM FcεRIα-Y131A-AF488; incubated 2 hours at room temperature; read-out: FRET IC50 range
T2 construct: 86 nmoles of IgE-Fc(N265Q, N371Q) (Young et al., 1995)
Experimental: In vitro Biochemical Assay: Protocol for preparation of IgE-Tb reagent 86 nmoles of […]) (Young et al., 1995) at 172 μM in 100 mM NaHCO3, pH 9.5 was added to 1 mg of LanthaScreenTM Amine Reactive Tb Chelate (ThermoFisher catalogue number PV3583) and incubated for 16 hours at 20° C. The material was then buffer exchanged into Phosphate Buffered Saline (being, 137 mM NaCl, 2.7 mM KCl, 10 mM Na2HPO4, 1.8 mM K2HPO4, pH 7.4) and the material quantified and the degree of Tb conjugation determined by measuring the absorption at 280 nm and 343 nm. The integrity of the conjugated material was determined by analytical size exclusion chromatography on a 5200 HR 10×300 column (GE Healthcare). Typical conjugation ratios were 4:1 Tb:IgE-Fc. • Young R J., Owens, […]., Chan C M W., Shi J., Hide […]., Henry A J., Sutton B J., and Gould H J (1995) Protein Engineering 8:193-199 Protocol for preparation of […] reagent […] Oxidation was quenched with the addition of 40 μl of ethanediol and incubation for 60 minutes at 22° C. The protein was buffer exchanged in to conjugation buffer (50 mM NaHCO3, 150 mM NaCl, pH 9.5) and concentrated to 750 μM. 175 nmoles of protein was added to 1 mg of Alexa FluorTM 488 hydrazide (Invitrogen) and incubated for 16 hours at 22° C. […] The protein was buffer exchanged into Phosphate Buffered Saline (being, 137 mM NaCl, 2.7 mM KCl, 10 mM Na2HPO4, 1.8 mM K2HPO4, pH 7.4) and the material quantified and the degree of Alexa FluorTM 488 conjugation determined by measuring the absorption at 280 nm and 495 nm. The integrity of the conjugated material was determined by analytical size exclusion chromatography on a 5200 HR 10×300 column (GE Healthcare). Typical conjugation ratios were 2:1 Alexa FluorTM488: sFcεR1α • Cook J P D., Henry […]., Owens R J., Sutton B J., and Gould H J (1997) Biochemistry 36:15579-15588 The aim was to measure binding of IgE-Tb to receptor, and the inhibition thereof by compounds, using an in vitro Fluorescence Resonance Energy Transfer (FRET) Assay. Reagents FRET reagents used were IgE labelled with Terbium (FRET donor), and soluble IgE receptor FcεRIα with a Y131A mutation, labelled with Alexa FluorTM 488 (FRET acceptor). Unlabelled FcεRIα was also used to generate a background control. The assay buffer consisted of 20 mM Tris pH7.2, 150 mM NaCl, and 0.002% Tween, 1% DMSO. Assay Reaction For most of the examples the assay was conducted according to the following: Each assay reaction was conducted in a volume of 25 μl in a 384-well half-volume plate. 10 point compound serial dilutions (3-fold) were generated in DMSO at a concentration of ×50 that of the final assay concentration (FAC). Compound solutions were then prepared by IgE-Tb diluting 10-fold in assay buffer. For the assay, 5 μl of diluted compound was added to 10 μl of IgE-Tb, followed by addition of 10111 FcεRIα-Y131A-AF488. FRET reagents FACs were 5 nM IgE-Tb, 25 nM FcεRIα-Y131A-AF488. Usually the top FAC of compound in the assay was 10 μM. The final DMSO concentration was 2%. The minimum signal (MIN) was measured by adding 5 μl unlabelled FcεRIα at 1 μM (FAC=200 nM) to the FRET reagents. The maximum FRET signal (MAX) was measured in wells containing FRET reagents but no compound. The assay was incubated for 2 hours at room temperature, protected from light and evaporation, and with gentle agitation. FRET Measurement Measurement of FRET for each well was carried out by exciting at 330 nm and measuring emission at 495/520 nm using an Envision plate reader (Perkin Elmer). FRET ratio was calculated as follows: Emission at 520/Emission at 495×1000. The FRET ratio was used for the data analysis. Data Analysis Z' was calculated as follows (σ=standard deviation and μ=mean): 1-((3×σMAX)+(3×σMIN))/(μMAX-/μMIN) Z' above 0.5 was considered a good assay. Background signal (MIN) was subtracted from all wells. Using the background subtracted values, the percent inhibition by compound in each test-well was calculated as follows: 100-Test-well FRET ratio/MAX FRET ratio×100. […]

T1 sequence (P01854 whole entry N146Q/N252Q, the tested form may be a part): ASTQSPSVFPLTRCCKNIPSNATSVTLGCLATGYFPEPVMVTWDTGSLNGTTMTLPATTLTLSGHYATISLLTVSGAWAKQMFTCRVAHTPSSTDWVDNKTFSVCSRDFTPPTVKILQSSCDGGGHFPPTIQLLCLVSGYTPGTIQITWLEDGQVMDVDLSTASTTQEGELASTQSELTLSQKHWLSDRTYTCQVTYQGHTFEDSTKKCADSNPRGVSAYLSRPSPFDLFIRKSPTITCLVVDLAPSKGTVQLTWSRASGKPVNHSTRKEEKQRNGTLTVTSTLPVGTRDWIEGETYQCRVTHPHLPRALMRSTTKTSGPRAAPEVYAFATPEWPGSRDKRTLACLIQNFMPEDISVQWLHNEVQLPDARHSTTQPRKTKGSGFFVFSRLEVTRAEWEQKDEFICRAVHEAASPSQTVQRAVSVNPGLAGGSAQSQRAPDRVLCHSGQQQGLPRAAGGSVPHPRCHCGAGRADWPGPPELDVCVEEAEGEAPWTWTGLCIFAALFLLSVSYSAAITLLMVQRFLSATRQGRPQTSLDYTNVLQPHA
T2 sequence (P0DOX4 224-547 N265Q/N371Q limits assumed): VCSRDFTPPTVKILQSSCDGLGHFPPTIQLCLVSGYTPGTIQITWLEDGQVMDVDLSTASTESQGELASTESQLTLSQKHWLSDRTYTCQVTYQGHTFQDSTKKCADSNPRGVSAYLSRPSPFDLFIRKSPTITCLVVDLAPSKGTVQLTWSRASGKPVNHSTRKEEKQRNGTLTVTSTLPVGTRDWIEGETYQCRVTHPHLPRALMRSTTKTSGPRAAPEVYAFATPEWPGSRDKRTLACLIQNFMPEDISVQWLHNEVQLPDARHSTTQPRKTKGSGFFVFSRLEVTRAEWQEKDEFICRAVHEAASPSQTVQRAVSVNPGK

Row | Compound | IC50 [1] | IC50 [2]
1 | CC(C)CNS(=O)(=O)c1c2c(cc3oc(C4CC4)nc13)CCC(n1cnnc1Nc1cc(C(F)F)nn1C)C2 (stereo not drawn) [Example 9, 2-cyclopropyl-6-[3-[[5-(difluoromethyl)-2-methylpyrazol-3-yl]amino]-1,2,4-triazol-4-yl]-N-(2-methylpropyl)-5,6,7,8-tetrahydrobenzo[f][1,3]benzoxazole-4-sulfonamide] | 0.05 to 0.1 µM | –
2 | CC(C)CNS(=O)(=O)c1c2c(cc3c1NC(C1CC1)=NO3)CCCC2 [Example 10, 3-cyclopropyl-N-isobutyl-6,7,8,9-tetrahydro-4H-benzo[g][1,2,4]benzoxadiazine-5-sulfonamide] | 0.05 to 0.1 µM | –
3 | Cc1nnc(-c2ccc(N[C@H]3CCc4cc5cnc(C6CC6)cc5c(S(=O)(=O)NCC(C)C)c4C3)cn2)o1 [Example 18, (7S)-3-cyclopropyl-7-[[6-(5-methyl-1,3,4-oxadiazol-2-yl)pyridin-3-yl]amino]-N-(2-methylpropyl)-6,7,8,9-tetrahydrobenzo[g]isoquinoline-5-sulfonamide] | – | 0.05 to 0.1 µM
